Test results reported in ChEMBL document CHEMBL1140246, “Synthesis of cationic beta-vinyl substituted meso-tetraphenylporphyrins and their in vitro activity against herpes simplex virus type 1” (2005).

What was measured:
Vero [1] = experiment: Photocytotoxicity was evaluated on the cell growth inhibition using Vero cells were at the concentration of 0.1 uM after 48 hr of incubation; type: functional, Chlorocebus sabaeus
Vero [2] = experiment: Photocytotoxicity was evaluated on the cell growth inhibition using Vero cells were at the concentration of 1 uM after 48 hr of incubation; type: functional, Chlorocebus sabaeus
Human alphaherpesvirus 1 [3] = experiment: Photostability against herpes simplex virus type 1 after 3 min of irradiation with total light dose of 9 mW/cm**2; type: functional
Vero [4] = experiment: Photocytotoxicity was evaluated on the cell growth inhibition using Vero cells were at the concentration of 5 uM after 48 hr of incubation; type: functional, Chlorocebus sabaeus
Human alphaherpesvirus 1 [5] = experiment: Photostability against herpes simplex virus type 1 after 15 min of irradiation with total light dose of 45 mW/cm**2; type: functional
Human alphaherpesvirus 1 [6] = experiment: Photovirucidal effect against herpes simplex virus type 1 after 15 mins of irradiation time with white light of 50 mW/cm2; type: functional
Human alphaherpesvirus 1 [7] = experiment: Photostability against herpes simplex virus type 1 after 10 min of irradiation with total light dose of 30 mW/cm**2; type: functional
Human alphaherpesvirus 1 [8] = experiment: Photovirucidal effect against herpes simplex virus type 1 after 5 mins of irradiation time with white light of 50 mW/cm2; type: functional
Vero [9] = experiment: Photocytotoxicity was evaluated on the cell growth inhibition using Vero cells were at the concentration of 20 uM after 48 h of incubation; type: functional, Chlorocebus sabaeus
Human alphaherpesvirus 1 [10] = experiment: Photostability against herpes simplex virus type 1 after 5 min of irradiation with total light dose of 15 mW/cm**2; type: functional
Vero [11] = experiment: Concentration required for cellular cytotoxicity against Vero cells
Vero [12] = experiment: Photocytotoxicity was evaluated on the cell growth inhibition using Vero cells were at the concentration of 10 uM after 48 hr of incubation; type: functional, Chlorocebus sabaeus
Vero [13] = experiment: Photocytotoxicity was evaluated on the cell growth inhibition using Vero cells were at the concentration of 0.25 uM after 48 hr of incubation; type: functional, Chlorocebus sabaeus
Human alphaherpesvirus 1 [14] = experiment: Photostability against herpes simplex virus type 1 after 1 min of irradiation with total light dose of 3 mW/cm**2; type: functional
Vero [15] = experiment: Photocytotoxicity was evaluated on the cell growth inhibition using Vero cells were at the concentration of 0.5 uM after 48 hr of incubation; type: functional, Chlorocebus sabaeus
Human alphaherpesvirus 1 [16] = experiment: Photovirucidal effect against herpes simplex virus type 1 with no irradiation time with white light of 50 mW/cm2; type: functional
Vero [17] = experiment: Photocytotoxicity was evaluated on the cell growth inhibition using Vero cells were at the concentration of 10 uM after 48 h of incubation; type: functional, Chlorocebus sabaeus
Vero [18] = experiment: Photocytotoxicity was evaluated on the cell growth inhibition using Vero cells were at the concentration of 20 uM after 48 hr of incubation; type: functional, Chlorocebus sabaeus

Structure (SMILES): C[n+]1ccc(/C=C/c2cc3[nH]c2c(-c2ccccc2)c2nc(c(-c4ccccc4)c4nc(c(-c5ccccc5)c5ccc([nH]5)c3-c3ccccc3)C=C4)C=C2)cc1.[Cl-]
- Viability (Vero [1]): 104.5%
- Viability (Vero [2]): 97.3%
- Intensity (Human alphaherpesvirus 1 [3]): 99%
- Viability (Vero [4]): 90.8%
- Intensity (Human alphaherpesvirus 1 [5]): 91%
- Virus inactivation (Human alphaherpesvirus 1 [6]): 48.99%
- Intensity (Human alphaherpesvirus 1 [7]): 93%
- Virus inactivation (Human alphaherpesvirus 1 [8]): 0%
- Viability (Vero [9]): 28%
- Intensity (Human alphaherpesvirus 1 [10]): 96%
- CC50 (Vero [11]): 13.5 µM
- Viability (Vero [12]): 62%
- Viability (Vero [13]): 99.9%
- Intensity (Human alphaherpesvirus 1 [14]): 100%
- Viability (Vero [15]): 98.3%

Structure (SMILES): C[n+]1ccccc1/C=C/c1cc2[nH]c1c(-c1ccccc1)c1nc(c(-c3ccccc3)c3nc(c(-c4ccccc4)c4ccc([nH]4)c2-c2ccccc2)C=C3)C=C1.[Cl-]
- Viability (Vero [1]): 104.8%
- Virus inactivation (Human alphaherpesvirus 1 [16]): 27.8%
- Viability (Vero [2]): 95.3%
- Intensity (Human alphaherpesvirus 1 [3]): 94%
- Viability (Vero [4]): 84.6%
- Intensity (Human alphaherpesvirus 1 [5]): 83%
- Virus inactivation (Human alphaherpesvirus 1 [6]): 99.61%
- Viability (Vero [17]): 69%
- Intensity (Human alphaherpesvirus 1 [7]): 88%
- Virus inactivation (Human alphaherpesvirus 1 [8]): 96.98%
- Viability (Vero [18]): 18.8%
- Intensity (Human alphaherpesvirus 1 [10]): 93%
- CC50 (Vero [11]): 13.7 µM
- Viability (Vero [13]): 103.3%
- Intensity (Human alphaherpesvirus 1 [14]): 100%
- Viability (Vero [15]): 101%
